Measured values taken from PubChem BioAssay (NCI).
Several values for one entry are separate records, joined by “and”; a condition that tells them apart may be missing. Equal entries are not always repeated.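 Five compound concentrations were applied to cells in 96-well plates for 48 hours; endpoints were derived by simple linear interpolation of the resulting dose-response curve. GI50 = concentration required for 50% inhibition of growth. TGI: total growth inhibition.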

How the values were obtained:
Test in all cases: DTP human tumour cell line panel, 48 h
[1] = tested on: COLO 205 colon
[2] = tested on: HOP-62 NSCLC
[3] = tested on: HOP-92 NSCLC
[4] = tested on: IGROV1 ovarian
[5] = tested on: LOX IMVI melanoma
[6] = tested on: MOLT-4 leukemia
[7] = tested on: NCI-H23 lung
[8] = tested on: OVCAR-4 ovarian
[9] = tested on: OVCAR-8 ovarian
[10] = tested on: SN12C renal

Compound	TGI [1]	TGI [2]	TGI [3] [µM]	TGI [4]	TGI [5] [µM]	TGI [6]	TGI [7]	TGI [8]	TGI [9]	TGI [10]	GI50 [1] [µM]	GI50 [2] [µM]	GI50 [3] [µM]	GI50 [4] [µM]	GI50 [5] [µM]	GI50 [6] [µM]	GI50 [7] [µM]	GI50 [8] [µM]	GI50 [9] [µM]	GI50 [10] [µM]
O=C(O)c1nnsc1COCc1ccccc1	> 100 µM	> 100 µM	> 100	> 100 µM	> 100	> 100 µM	> 100 µM	> 100 µM	> 100 µM	> 100 µM										
CCOC(OC1=C(C#N)CCC1)C(CC)[Se]c1ccccc1 (stereo unspecified)	53.9 µM	> 100 µM	54	71 µM	17.7	48.8 µM	25.1 µM	33.1 µM	65.2 µM	32.3 µM										
c1cncc(C2c3[nH]c4ccccc4c3CCN2CCN2CCCCC2)c1 (stereo unspecified)		> 100 µM	> 100	> 100 µM	> 100	> 100 µM	> 100 µM	> 100 µM	> 100 µM	> 100 µM										
Cc1ccc(-c2cc3nc(-c4ccccc4)nc(C(Cl)Cl)n3n2)cc1	2.34 µM	2.11 µM	1.62	> 50 µM	> 50	> 50 µM	> 50 µM	1.73 µM	4.74 µM	> 50 µM	1.06	0.666	0.725	1.43	> 50	> 50	1.95	0.671	1.16	2.92
OC1CCC(Oc2cccc3cnc(Nc4ccc5nc[nH]c5c4)nc23)CC1 (stereo unspecified)	0.886 µM	14.9 µM	29.4	16.6 µM	11.4	0.636 µM	1.63 µM	16 µM	43 µM	72.7 µM	0.21	0.331	0.467	0.287	0.231	0.157	0.21	1.06	0.521	0.392
O=C(N=Nc1c(O)[nH]c2ccccc12)c1ccccc1O	> 100 µM	> 100 µM			> 100	> 100 µM	92 µM	> 100 µM	> 100 µM	> 100 µM										
CC[C@@]1(OC(=O)CCC(=O)O)C(=O)OCc2c1cc1n(c2=O)Cc2cc3ccccc3nc2-1	8.49 µM	0.181 µM	6.08	5.98 µM	0.596	0.163 µM	0.838 µM	13.3 µM	9.38 µM	4.22 µM										
CCCN(CCC)c1c([N+](=O)[O-])cc(S(N)(=O)=O)cc1[N+](=O)[O-]	43.1 µM	32 µM		19.6 µM	31.6	45.4 µM	32.3 µM	26.9 µM	35.1 µM	31.6 µM										
COc1ccc([N+](=O)[O-])c2c(NCC(O)CO)ccnc12 (stereo unspecified)	53.6 µM	> 100 µM		97.5 µM	> 100	> 100 µM	40.4 µM	45.7 µM	> 100 µM	> 100 µM										
CC(O)C(NC(=O)C(CS)NC(=O)C(CO)NC(=O)C(CCCCN)NC(=O)C(Cc1c[nH]c2ccccc12)NC(=O)C(Cc1ccc(O)cc1)NC(=O)C(CS)NC(=O)C(N)Cc1ccccc1)C(N)=O (stereo unspecified)	> 25 µM and 66.2 µM	> 25 µM and 63.4 µM		> 25 µM and 44 µM	> 25	> 25 µM and 67.4 µM	> 25 µM and 68 µM	> 25 µM and 94.8 µM	> 25 µM and 81.5 µM	> 25 µM and 84.2 µM	20.7			20.2				26.6		28.6
CN(C)CCNC(=O)c1cccc(CO)c1[N+](=O)[O-]	> 100 µM	> 100 µM		> 100 µM		> 100 µM	> 100 µM		> 100 µM	> 100 µM										
CCOC(=O)c1c2ccc(/C=C/C(=O)OC)ccc-2c(C(=O)OCC)c1N	> 100 µM		> 100	> 100 µM	> 100	> 100 µM	> 100 µM	> 100 µM												
COc1cccc2c(=O)c3c(sc12)c(NCCCN)nc1ccccc13			2.75	2.16 µM	2.68		2.99 µM	3.64 µM		2.85 µM			1.27	0.858	1.3		1.56	1.73		1.45
O=C1OCC2=Nc3cccc4cccc(c34)N12	> 100 µM	> 100 µM		> 100 µM	> 100	> 100 µM	> 100 µM	> 100 µM	> 100 µM	> 100 µM										
COC(=O)/C(=N/NC(C)(C)C)C(C(=O)C=C(C)C)C(=O)C(=O)Nc1ccc(Cl)cc1C (stereo unspecified)	> 100 µM	> 100 µM		> 100 µM		> 100 µM	> 100 µM	> 100 µM	> 100 µM	> 100 µM										
c1cc2c(cnc3cscc32)s1		> 100 µM	> 100		> 100	> 100 µM	> 100 µM	> 100 µM	> 100 µM	> 100 µM										
CC1=C2N3C[C@@H](n4c(=O)n(C)c(=O)n43)C23CCC1n1c(=O)n(C)c(=O)n13	> 100 µM	> 100 µM		> 100 µM	> 100	> 100 µM	> 100 µM	> 100 µM	> 100 µM	> 100 µM										
COc1ccc(/C=[N+](\[O-])[C@H](COCc2ccccc2)c2ccccc2)cc1	> 100 µM	> 100 µM	> 100	> 100 µM	> 100	> 100 µM	> 100 µM		> 100 µM											
CN(C)CCNc1cccc2sc3ccc(O)cc3c(=O)c12	15.3 µM	6.58 µM		12.5 µM		2.81 µM	17 µM	12.3 µM	9.78 µM	13.6 µM	3.92	2.29		3.13		0.483	4.03	2.75	2.16	2.54

Compound	TGI [1]	TGI [2]	TGI [3] [µM]	TGI [4]	TGI [5] [µM]	TGI [6]	TGI [7]	TGI [8]	TGI [9]	TGI [10]	GI50 [1] [µM]	GI50 [2] [µM]	GI50 [3] [µM]	GI50 [4] [µM]	GI50 [5] [µM]	GI50 [6] [µM]	GI50 [7] [µM]	GI50 [8] [µM]	GI50 [9] [µM]	GI50 [10] [µM]
NC(N)=NNC(=O)C(=O)O	> 100 µM	> 100 µM		> 100 µM	> 100	> 100 µM	> 100 µM	> 100 µM	> 100 µM	> 100 µM										
Cc1ccc(C)c(NC(=O)/C(=N\NC(N)=S)C(C#N)c2ccccc2)c1 (stereo unspecified)	> 100 µM	> 100 µM	> 100	> 100 µM		> 100 µM	> 100 µM	> 100 µM	> 100 µM	> 100 µM										
NC(N)=N/N=C/c1c(-c2cc(Cl)sc2Cl)nc2n1CCS2		15.8 µM		> 50 µM	15.8	26.8 µM	16.7 µM		22.1 µM	14.2 µM		8.87		16.4	8.33	10.4	8.77		10.3	7.18
O=C(O)c1[nH]c(C(=O)O)c(CC(F)(F)C(F)(F)C(F)(F)F)c1CC(F)(F)C(F)(F)C(F)(F)F	> 100 µM	> 100 µM	> 100	> 100 µM	> 100		> 100 µM	> 100 µM	> 100 µM	> 100 µM										
CCN(CC)C(=S)SSC1CCCCC1		77.9 µM	40	38.4 µM	24.3	43.5 µM	48.7 µM	28.4 µM	34.9 µM	31.2 µM		26.8	14.3	17.2	8.6	11.4	20.8	15	15.8	15.8
C=CCN(N=O)C(=O)N(CCC)CCCC(NC(C)=O)C(=O)NCc1ccccc1 (stereo unspecified)	> 100 µM	> 100 µM		> 100 µM	> 100	> 100 µM	> 100 µM	> 100 µM	> 100 µM	> 100 µM										
CC(C)(C)N=CN1CCC(C(c2ccccc2)c2ccccc2)CC1	34.2 µM	> 100 µM	> 100	> 100 µM	> 100		> 100 µM	> 100 µM	> 100 µM	> 100 µM										
Cc1ccc(S(=O)(=O)NCCN2c3nc4ccccc4cc3Sc3cc4ccccc4nc32)cc1	> 100 µM	98.9 µM	13.3	> 100 µM	> 100	> 100 µM	> 100 µM		> 100 µM	> 100 µM	> 100	16.5	2.19	7.06	> 81.7	> 100	13		6.01	> 100
C=C1C(O)C2C(=C(CC(C)C)C13CC3)C(=O)C(C)(C)C2OC (stereo unspecified)	> 100 µM	> 100 µM	> 100		> 100	66.8 µM	> 100 µM	> 100 µM	> 100 µM	> 100 µM	> 100	> 100	97		> 100	24.2	> 100	> 100	> 100	> 100
c1ccc(COc2ccc3[nH]c4c(ncc5[nH]c6ccccc6c54)c3c2)cc1	47.1 µM	30.5 µM	29.9	18.9 µM	32.9	31.6 µM	35.3 µM		32.2 µM	29.7 µM										
O=S(=O)(O)c1ccc2cc(N=Nc3cc(S(=O)(=O)O)c4cccnc4c3O)ccc2c1	> 100 µM	> 100 µM	> 100	> 100 µM	> 100	> 100 µM	> 100 µM	> 100 µM	> 100 µM											
CC/C=C\C[C@H](O)C/C=C1/C(=O)C=C[C@@H]1C/C=C\CCCC(N)=O	4.72 µM	7.77 µM	6.74	12.2 µM	1.69		5.27 µM	16.8 µM	11.4 µM	6.43 µM	2.11	2.99	3.15	3.09	0.35		2.13	3.45	3.03	2.32
O=C1c2cccc3cc([N+](=O)[O-])cc(c23)C(=O)N1CCCN1CCN(CCCN2C(=O)c3cccc4cc([N+](=O)[O-])cc(c34)C2=O)CC1	2.67 µM	33.8 µM	5.2	15.4 µM		> 100 µM	7.64 µM	5.96 µM	> 100 µM	> 100 µM										
CN(C)CCNC(=O)c1cc([N+](=O)[O-])cc2ccc(-c3ccccc3)nc12	21.6 µM	38.1 µM	27.4	25.6 µM	30.5		27.6 µM	13 µM	> 39.2 µM	> 62.7 µM										
Cn1cc(NC(=O)c2cc(NC(=O)CCCCCC(=O)Nc3cc(C(=O)Nc4cc(C(=O)NCCC(=N)N)n(C)c4)n(C)c3)cn2C)cc1C(=O)NCCC(=N)N	> 100 µM		> 100	> 100 µM	> 100		> 100 µM	> 100 µM	> 100 µM	> 100 µM										
NC(=O)c1ccccc1NC(=O)C(=O)C(c1cnc2ccc([N+](=O)[O-])cc2n1)[N+](=O)[O-] (stereo unspecified)		> 100 µM	> 100	> 100 µM	> 100	> 100 µM	> 100 µM	> 100 µM	> 100 µM	> 100 µM										
COc1cc2ccc3c4cc(OC)c(OCc5ccccc5)cc4cnc3c2cc1OC	> 100 µM	> 100 µM		> 100 µM		> 100 µM	> 100 µM	> 100 µM	> 100 µM	> 100 µM										
CCOC(=O)C(=O)Nc1c(C)cccc1CC		> 100 µM	> 100	> 100 µM	> 100	> 100 µM	> 100 µM	> 100 µM	> 100 µM	> 100 µM										
CCOC(=O)/C=C/c1ccc(C(=O)OCC)[nH]1	8.38 µM	> 100 µM		> 100 µM	> 100	> 100 µM	> 100 µM	> 100 µM	> 100 µM	> 100 µM	2.82	7.14		4.84	5.29	4.42	7.16	20.3	5.82	5.11
